PubChem BioAssay (NCI)
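Cells were grown in 96-well plates and exposed to each compound for 48 hours at five concentrations; endpoints were interpolated linearly between bracketing concentrations, or set to the highest concentration if not reached. GI50: concentration for 50% inhibition of growth. TGI marks complete inhibition of growth.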

Legend:
Assay in all cases: NCI tumour cell line growth inhibition, 48 h
A498 renal = test system: A498 renal
CAKI-1 renal = test system: CAKI-1 renal
COLO 205 colon = test system: COLO 205 colon
HOP-92 NSCLC = test system: HOP-92 NSCLC
NCI-H23 lung = test system: NCI-H23 lung
SK-MEL-5 melanoma = test system: SK-MEL-5 melanoma
SW-620 colon = test system: SW-620 colon
U251 CNS = test system: U251 CNS
RXF 393 renal = test system: RXF 393 renal
EKVX NSCLC = test system: EKVX NSCLC

Row | SMILES | TGI (A498 renal) [µM] | TGI (CAKI-1 renal) [µM] | TGI (COLO 205 colon) [µM] | TGI (HOP-92 NSCLC) [µM] | TGI (NCI-H23 lung) [µM] | TGI (SK-MEL-5 melanoma) [µM] | TGI (SW-620 colon) [µM] | TGI (U251 CNS) [µM] | GI50 (A498 renal) [µM] | GI50 (CAKI-1 renal) [µM] | GI50 (COLO 205 colon) [µM] | GI50 (HOP-92 NSCLC) [µM] | GI50 (NCI-H23 lung) [µM] | GI50 (RXF 393 renal) [µM] | TGI (RXF 393 renal) [µM] | GI50 (SK-MEL-5 melanoma) [µM] | GI50 (SW-620 colon) [µM] | GI50 (U251 CNS) [µM] | TGI (EKVX NSCLC) [µM] | GI50 (EKVX NSCLC) [µM]
1 | COC(=O)C1=CC2C(=O)OC1CC2C#N (configuration not stated) | > 100 | > 100 | > 100 | > 100 | > 100 | > 100 | > 100 | > 100 |  |  |  |  |  |  |  |  |  |  |  | 
2 | Cc1ccc(S(=O)(=O)Nc2cccc3[nH]c(C(F)(F)F)nc23)cc1 | 1.82 | 24.4 | 10.7 | 9.32 | 41.5 | 3.98 | > 100 | 21.4 | 0.262 | 0.337 | 0.387 | 0.957 | 1.66 | 1.17 | 27.1 | 0.429 | 0.382 | 0.466 |  | 
3 | COc1cc(C2C(Cl)C(=O)N2NC(=O)c2ccc(N)cc2)ccc1O (configuration not stated) | > 100 | 78.9 | 36.9 | 52.8 | 44.8 | > 100 | 35.2 | 32 |  |  |  |  |  |  |  |  |  |  | > 100 | 
4 | O=C(Nc1cccc(NC(=O)Nc2cc(C(F)(F)F)ccc2Cl)c1)Nc1cc(C(F)(F)F)ccc1Cl | 7.63 | > 100 | > 100 | 5.06 | 15.9 | 65.6 | > 100 | 7.91 | 1.48 | 3.14 | 3.44 | 1.99 | 2.61 |  |  | 3.2 | 3.28 | 1.93 |  | 
5 | N#CC(c1nc2ccccc2nc1Cl)S(=O)(=O)c1ccccc1 (configuration not stated) | > 100 | > 100 | > 100 | 70.1 | > 100 | > 100 | > 100 | > 100 |  |  |  |  |  |  |  |  |  |  | > 100 | 
6 | COc1cc([C@H]2OC[C@H]3[C@@H]2CO[C@@H]3c2cc(OC)c3c(c2)OCO3)cc(OC)c1OC | > 100 | > 100 | > 100 | > 100 | > 100 | 48.7 | > 100 | > 100 |  |  |  |  |  |  |  |  |  |  | > 100 | 
7 | [N-]=[N+]=NC(CI)c1cn([C@H]2C[C@H](O)[C@@H](CO)O2)c(=O)[nH]c1=O (some centres not stated) |  | > 100 | > 100 | > 100 | > 100 | > 100 | > 100 | > 100 |  |  |  |  |  |  | > 100 |  |  |  | > 100 | 
8 | Cn1cc(C2=C(c3cccc(OCC(O)CO)c3)C(=O)NC2=O)c2ccccc21 (configuration not stated) | > 25 | > 25 | > 25 | > 25 | > 25 | > 25 | > 25 | > 25 | > 25 | > 25 | > 25 | > 25 | > 25 | > 25 | > 25 | > 25 | > 25 | > 25 |  | 
9 | C1=C2/CC[C@H](Sc3ccccc3)[C@H]2C2(CCCCC/1)OCCO2 |  | 63 | 38.2 | 59.1 | > 100 | 59.1 | > 100 | 63.1 |  |  |  |  |  |  |  |  |  |  | 54.5 | 
10 | CCOC(=O)NC(=O)c1cn(CCCCCCOC(=O)NCCCCCCNC(=O)OCCCCCCn2cc(C(=O)NC(=O)OCC)c(=O)[nH]c2=O)c(=O)[nH]c1=O | > 100 | > 100 | > 100 |  |  | > 100 | > 100 | > 100 |  |  |  |  |  |  | > 100 |  |  |  | > 100 | 
11 | O=C1c2ccccc2-c2c1c1ccccc1c(=O)n2CCN1CCOCC1 |  | 90.3 | > 100 | > 100 |  | > 100 | > 100 | > 100 |  | 23.9 | > 100 | > 100 |  | 49 | > 100 | 49 | 87.6 | 52.4 | > 100 | 98.8
12 | COc1ccc(/C=N/N=C(\N)NO)c(OC)c1 |  | > 100 | > 100 | > 100 | > 100 | > 100 | > 100 | > 100 |  |  |  |  |  |  | > 100 |  |  |  | > 100 | 
13 | COC(=O)c1cc(Cl)ccc1NC(=O)c1ccc([N+](=O)[O-])cc1 | 34.5 | 53.1 |  |  | 50.3 | > 100 | > 100 | 22.2 |  |  |  |  |  |  | 65.6 |  |  |  | > 100 | 
14 | O=C(Nc1ccc(Cl)c(Cl)c1)O/N=C\c1c(Cl)ccc([N+](=O)[O-])c1Cl | 22.8 | 3.38 | 4.81 |  | 9.7 | 8.59 |  | 3.14 | 10.6 | 1.67 | 2.4 |  | 2.95 |  |  | 2.38 |  | 1.68 |  | 
